Test results as given in ChEMBL document CHEMBL1135486, “Acylating agents as enzyme inhibitors and understanding their reactivity for drug design” (J Med Chem, 2002).

Experiment: Second-order rate constant (M-1 s-1) for the alkaline hydrolysis in water at 30 degrees C
Settings: buffer

Row | Compound | kOH
1 | O=C1CCCN1 [2-PYRROLIDONE] | 1.2 M⁻¹ s⁻¹
2 | O=C1c2ccccc2S(=O)(=O)N1Cc1ccccc1 | 4.06 M⁻¹ s⁻¹
3 | O=C1CCCO1 [BUTYROLACTONE] | 1.31 M⁻¹ s⁻¹
4 | CC(=O)N(C)C(C)=O | 1.54 M⁻¹ s⁻¹
5 | CCOC(C)=O [ETHYL ACETATE] | 0.164 M⁻¹ s⁻¹
6 | CCC[C@H](NC(=O)N1C(=O)C(CC)(CC)C1Oc1ccc(C(=O)N2CCN(C)CC2)cc1)c1ccc2c(c1)OCO2 (some centres undefined) | 0.027 M⁻¹ s⁻¹
7 | O=C1CCCN1c1ccccc1 | 0.000013 M⁻¹ s⁻¹
8 | CC(C)[C@@H]1C(=O)N(S(C)(=O)=O)[C@@H]2CCN(C(=O)C3CN(CC(C)(C)C)C3)[C@H]21 | 0.0601 M⁻¹ s⁻¹
9 | CC(=O)N(C)S(=O)(=O)Cc1ccccc1 | 1.3 M⁻¹ s⁻¹
10 | C=CC[C@H]1C(=O)OC2CCN(C(=O)OCc3ccccc3)[C@@H]21 (some centres undefined) | 0.252 M⁻¹ s⁻¹
11 | CN1CCCC1=O [METHYLPYRROLIDONE] | 3.07 M⁻¹ s⁻¹
12 | CC(C)[C@@H]1C(=O)N(S(C)(=O)=O)[C@@H]2CCN(C(=O)/C=C/CN3CCCCC3)[C@H]21 | 0.07 M⁻¹ s⁻¹
13 | CC(C)[C@@H]1C(=O)N(S(C)(=O)=O)[C@@H]2CCN(C(=O)c3coc(CN4CCCC4)n3)[C@H]21 | 0.08 M⁻¹ s⁻¹
14 | CN1C(=O)CCC1=O | 0.825 M⁻¹ s⁻¹
